Test results as given in paper PMC5522084, “Eg5 inhibitor YL001 induces mitotic arrest and inhibits tumor proliferation” (Oncotarget, 2017).

Key:
4T1/6TG = assay: Antiproliferation assay (Alamar Blue), 4T1/6TG; type: cell-based; conditions: 6TG resistant mouse breast cancer, read-out: EC50 of YL001
B16 = assay: Antiproliferation assay (Alamar Blue), B16; type: cell-based; conditions: B16, mouse melanoma; read-out: EC50 of YL001
HCT116 = assay: Antiproliferation assay (Alamar Blue), HCT116; type: cell-based; conditions: Homo sapiens, HCT-116; HCT116, colon cancer; read-out: EC50 of YL001
Description: (§1) Cytotoxic activities of the compounds of interest were investigated with human cancer cell lines using the Alamar Blue assay. Cells (5 × 10^3 cells/well) were seeded into 96-well plates (Corning, 3603). Various sample concentrations (compounds of interest) were added to each well in duplicate, and incubated at 37°C with 5% CO2 for two days such that cells were in the exponential growth phase at the time of drug addition. Ten microliters of the Alamar Blue Solution (Invitrogen, Alamar Blue) were added to each well and incubated at 37°C for up to 2 hours in a humidified, 5% CO2 atmosphere. After incubation, florescence was measured using a microplate reader (Tecan) at an excitation wavelength of 540 nm and emission of 590 nm. Each inhibitory concentration was measured in triplicate, and averaged data points ± SD are shown. Statistical analysis was carried out with GraphPad Prism 5 and the fifty-percent effective concentration is expressed as EC50.

B16 melanoma xenograft = B16 melanoma xenograft model; type: in vivo
Description: B16 cells (1 × 10^6 cells) were inoculated s.c. into 6-week old C57BL/6 mice. Tumor volume was calculated as: V = 1/2× L (long axis)×W^2 (short axis). When the volume of tumor was between 50 to 100 mm^3, YL001 was administered i.p. daily on days 1 to 10 at 200 mg/kg. Doses and schedules were determined by tolerance studies. Mice were kept under specific pathogen-free conditions, and all animal experiments were approved by the Committee on Animal Research at our institute.
Vehicle (10% (v%) N,N-Dimethylacetamide (DMAC) in 200 μL olive oil per 20 g mouse) was administered daily i.p. as a control on days 1 to 10. Drug efficiency was expressed as the ratio of the mean experimental V/V0 value to that of the control group [treated versus control (T/C) ratio], where V is the tumor volume on the day of evaluation and V0 is the tumor volume on the day of initial treatment with the drug. Drug efficiency was also evaluated by median survival. All statistical analysis was performed using Graphpad Prism 5.

HeLa cells [1] = assay: Colony formation; type: cell-based; conditions: Homo sapiens, exposed 24 hours, cultured 10 days
Description: HeLa cells (5 × 10^2 cells/well) were seeded into 6-well plates and were treated with a series of gradient concentrations of YL001 for 24 hours, followed by washing and continual culture for 10 days. DMSO was used as a negative control, and STLC was used as a positive control. Cells were fixed with ethanol for more than 30 minutes and dyed with crystal violet for more than 30 minutes. Clones were counted with OpenCFU [54].

MCF10A = assay: Antiproliferation assay, normal breast cell line MCF10A; type: cell-based
Description: as §1

A2780/taxol = assay: Antiproliferation assay (Alamar Blue), A2780/taxol; type: cell-based; conditions: Homo sapiens, taxol resistant ovarian cancer, read-out: EC50 of YL001
Description: as §1

MCF-7 = assay: Antiproliferation assay (Alamar Blue), MCF-7; type: cell-based; conditions: Homo sapiens, MCF7; MCF-7, breast cancer; read-out: EC50 of YL001
Description: as §1

[2] = tested on: human and rodent cancer cell lines; assay: Antiproliferative activity over the panel of 15 cancer cell lines; type: cell-based; conditions: 15 cell lines tested, read-out: EC50 values predominantly in the range
Description: as §1

DU145 = assay: Antiproliferation assay (Alamar Blue), DU145; type: cell-based; conditions: Homo sapiens, DU-145; DU145, prostate cancer; read-out: EC50 of YL001
Description: as §1

HeLa = assay: Antiproliferation assay (Alamar Blue), HeLa; type: cell-based; conditions: Homo sapiens, 48 h, HeLa cell line, two days
Description: as §1

K562 = assay: Antiproliferation assay (Alamar Blue), K562; type: cell-based; conditions: Homo sapiens; K562, leukemia; read-out: EC50 of YL001
Description: as §1

Pharmacokinetic study = type: in vivo; conditions: BALB/c nude, mouse, plasma, ip; 200 mg/kg intraperitoneally, single dose, HeLa xenograft nude mice
Description: A HPLC-MS/MS method was developed for single-dose pharmacokinetic (PK) study of YL001 in HeLa xenograft BALB/c nude mice. YL001 was administered intraperitoneally at a dose of 200 mg/kg. Blood samples were then collected by enucleating eyeballs at 0.083, 0.167, 0.333, 0.5, 1, 2, 6, 12, 24 hours in heparinized polypropylene tubes. Three mice were sacrificed at each time point. Samples were centrifuged immediately at 4000 r/min for 20 min to separate plasma. The final sample for HPLC-MS/MS detection by QTRAP 6500 (AB Sciex, USA) was a mixture (plasma: H2O: methanol = 1:1:8). All individual data were pooled together to further perform PK analysis. DAS 2.1.2 were used to estimate PK parameters by non-compartmental analysis.

Huh7 = assay: Antiproliferation assay (Alamar Blue), Huh7; type: cell-based; conditions: Homo sapiens, Huh-7; Huh7, liver cancer; read-out: EC50 of YL001
Description: as §1

HeLa cells [3] = assay: Monopolar spindle phenotype, high content imaging; type: cell-based; conditions: Homo sapiens, 8 hours, analyzed with Columbus, read-out: EC50 for monopolar spindles
Description: HeLa cells (5 × 10^3 cells/well) were seeded in 96-well plates (Corning, 3603). Drugs were diluted appropriately in medium from 10 mM stocks in 100% DMSO and added to the cells. Following 8 hours incubation with drugs, cells were fixed with 4% paraformaldehyde (20 minutes at room temperature), permeabilized with PBST (0.5% Triton X-100 in PBS) for 15 minutes, and washed before blocking. Cells were blocked with 4% BSA for at least 30 minutes at room temperature and stained with anti-β-tubulin monoclonal antibodies (Sigma) at 400-fold dilution for 1 hour with Alexafluor 488-conjugated goat anti-mouse secondary antibodies (Invitrogen) at 300-fold dilution for 1 hour. DNA was detected with 4′,6-diamidino-2-phenylindole dihydrochloride (DAPI). Actin was detected with Phalloidin. High content screening (Perkin Elmer Operetta) was used to photograph stained cells at 40× magnification, and Columbus software was used for statistical analysis of the percentage of mitotic cells with monopolar spindles present in treated cells over the total number of cells in mitosis counted after 8 hours incubation with drugs.

[4] = Dose range testing in healthy mice without tumor; type: in vivo; conditions: healthy B6 mice without tumor; taking into consideration the solubility

In the case of `Cc1ccc(-n2nnnc2/C(=C/N(C)C)C(=O)c2cccc(C(F)(F)F)c2)cc1` [YL001, (Z)-3-(dimethylamino)-2-(1-(p-tolyl)-1H-tetrazol-5-yl)-1-(3-(trifluoromethyl)phenyl)prop-2-en-1-one], the EC50 (4T1/6TG) is reported as 20 ± 0.5 µM, the EC50 (B16) is reported as 13.9 ± 5.03 µM and the EC50 (HCT116) is reported as 9.04 ± 2.19 µM. The “adverse effects / toxicity” value (B16 melanoma xenograft; 200 mg/kg i.p. daily for 10 days, body weight) was “no adverse effects were observed”, the “minimum T/C ratio” value (B16 melanoma xenograft; 200 mg/kg i.p. daily for 10 days, tumor volume) was 0.40 and the Medium survival time (B16 melanoma xenograft; 200 mg/kg, B16 tumor-bearing mice) was over 33 days. For the same compound, the tumor growth inhibition (B16 melanoma xenograft; xenograft mouse model, 200 mg/kg i.p. daily) was 60%, the IC50 (HeLa cells [1]) was 0.124 µM and the Therapeutic window (MCF10A) was over 6.7. It also gave an EC50 (MCF10A; Homo sapiens, MCF-10A, MCF10A, breast normal cell, read-out: EC50 of YL001) of over 100 µM, an EC50 (A2780/taxol) of 20.1 ± 0.68 µM and an EC50 (MCF-7) of 14.9 ± 2.57 µM. For the same compound, the EC50 [2] was 5 to 20 µM, the EC50 (DU145) was 26.5 ± 0.27 µM and the EC50 (HeLa) was 14.3 ± 0.78 µM. For the same compound, the EC50 (K562) was 9.76 ± 0.52 µM, the half-life (Pharmacokinetic study) was 5.3 h and the EC50 (Huh7) was 14.6 ± 0.82 µM. The EC50 (HeLa cells [3]) was 15.3 µM and the maximal therapeutic dose [4] was 200 mg/kg.
